Reference: PMC8910697, “Development of VPC-70619, a Small-Molecule N-Myc Inhibitor as a Potential Therapy for Neuroendocrine Prostate Cancer” (International Journal of Molecular Sciences, 2022)
Read-outs that look alike come from different tables or passages of the source.

Experiments:
[1] = system: N-Myc-Max transcription activity (LNCaP-NMYC cells); assay: Myc transcription assay (Cignal Myc reporter, luciferase) in LNCaP-NMYC cells; type: cell-based; conditions: for IC50: Homo sapiens, LNCaP, Table 1, transcriptional assay in LNCaP cells overexpressing N-Myc, read-out: IC50; for transcription inhibition activity (in words): LNCaP-NMYC, screened at 10 µM and 5 µM
Method: To determine the optimal substitutions on the free phenyl ring, we used the active scaffold for a second substructure search against the ZINC15 database to identify a set of 181 analogues for further validation (VPC-70617 to -70799, presented in Supplementary Table S1). Compounds were tested for their inhibition of a N-Myc-Max luciferase transcription activity assay at 5 and 10 µM Figure 2a. Herein, we inspected all the proposed substitutions on the scaffold to discern the features required to construct a possible SAR model for inhibitors targeting N-Myc-Max/DBD complex (Figure 2b).
LNCaP-NMYC cells were transfected using TransIT-2020 transfection reagents per the manufacturer’s protocol. Cells were plated at a density of 10,000 cells per well of a 96-well plate. Following 24 h treatment with 5 µM or 10 µM of the compounds, the Myc reporter activity was measured using the Cignal Myc Reporter Assay Kit from Qiagen (#336841) (Hilden, Germany) per the manufacturer’s instructions.

[2] = system: N-Myc-Max transcription activity (LNCaP-NMYC cells); assay: as above; type: cell-based
[3] = system: HO15.19 cells; assay: Cell viability counter-screen (CellTiter-Glo), Myc-negative HO15.19; type: cell-based; conditions: for inhibition at 10 µM: Rattus norvegicus, HO15.19, 10 µM, Myc-negative specificity control
Method: (§1) The 54 compounds were tested at 10 µM for their inhibition of the IMR32 human neuroblastoma cell line, in which the MYCN gene is amplified and actively expressed (Table 3). HO15.19 cell line (Myc-negative) was used in parallel as a compound specificity control.
(§2) Viability of N-Myc positive (IMR32and NCI-H660) and negative (HO15.19) cells were determined using the CellTiter-Glo Luminescent Cell Viability Assay (Promega cat. G7570) (Madison, WI, USA). Cells were seeded into a 96-well white plate with a clear bottom: 10,000 cells per well for the IMR32 cells cultured in EMEM supplemented with 10% FBS, 2000 HO15.19 cells per well in Eagle’s minimum essential medium (EMEM) supplemented with 10% FBS, and 2000 cells per well for the NCI-H660 neuroendocrine cells cultured in RPMI supplemented 5% FBS, 1% Insulin-Transferrin-Selenium (Thermo Fisher, 41400-045), 10nM b-estradiol (Sigma, E8875), 10nM hydrocortisone (Sigma H0888) and 1% matrigel. Following 24 h incubation, the cells were treated with serial dilutions of the derivatives along with the respective parental compound starting at 25 μM for 72 h. Cell Titer Glo was added to each well at a ratio of 1:1 and incubated on a shaker at RT for 2 min. Luminescence and IC50 was measured with the TECAN InfiniteM200 plate reader (Männedorf, Switzerland).

[4] = Pharmacokinetics after IP and PO dosing; type: in vivo, male Balb/c mice; conditions: 10 mg/kg; for Tmax: 75:25 PG/PEG 400 formulation; for Cmax: 70551 in 75:25 PG/PEG 400, 70619 in 20:80 Kolliphor EL
Method: In order to characterize VPC-70619 as a drug candidate against N-myc, its pharmacokinetic (PK) characteristics were evaluated in Balb/c mice following intraperitoneal (IP) and peroral (PO) administrations. As presented in Figure 5, we determined the PK properties of VPC-70619 and compared it to the parental molecule, VPC-70551. […] The clearance of 70551 for PO delivery was extremely slow, and we could not determine the T1/2 in the experimental conditions used for this assay. […] Therefore, VPC-70619 was deemed to have appropriate efficacy in vivo, and a better pharmacokinetic profile due to higher bioavailability for both oral and intraperitoneal administration.
Bienta Enamine Biology Services (Kyiv, Ukraine) conducted PK studies according to the Enamine PK study protocols and Institutional Animal Care and Use Guidelines. The PK studies were reviewed and approved by the Bienta Animal Care and Use Committee (BACUC) under the project identification codes PK-VPC-112618 (approved 17 December 2018) and PK-VPC-101119 (approved 21 October 2019), for VPC-70551 and […], respectively. Evaluation of 70619 and 70551 was conducted in male Balb/c mice through intraperitoneal (IP) and peroral (PO) administration. Measurements were taken at six time points: 5, 15, 60, 120, 240, and 360 min for IP; 15, 30, 60, 120, 240, and 480 min for PO. Four mice were included in each treatment group for each time point; one mouse each for IP and PO was included as a control. Initial target administration for both IP and PO was 10 mg/kg dose level, 2 mg/mL dose concentration, and 5 mL/kg dose volume. Concentration of the compounds was evaluated in the plasma samples using an LC-MS/MS system.

[5] = Microsomal stability assay; type: in vitro ADME, Mouse; conditions: mouse liver microsomes, 1 µM compound
Method: A microsomal stability assay was performed using the Corning Gentest NADPH Regenerating System (Corning, #451220/41200) (Corning, NY, USA). Mouse liver microsomes (MLM) (Xenotech, M1000) (Kansas City, KS, USA) and compounds were diluted to a final concentration of 0.15 mg/mL and 1 μM respectively. These were prepared into a 500 μL solution with 100 mM potassium phosphate buffer (pH = 7.4). Imipramine was used as a control. NADPH solutions A and B were mixed in a 5:1 ratio, and 24 μL of the NADPH was added to each of the MLM/compound samples at 30 s intervals. At time points 10, 20, and 45 min, 100 μL of reaction was added to the stopping solution. Samples were centrifuged at 18,000× g and incubated at 4 °C for 10 min. Samples were then loaded onto a LC-MS 96-well plate for analysis.

[6] = system: N-Myc-Max binding to DNA E-box; assay: Biolayer interferometry (BLI), N-Myc-Max binding to biotinylated E-box DNA; type: biochemical; conditions: BLI, 0, 50, 100, 200 µM
Description: To confirm that 70619 could disrupt the binding of N-Myc-Max DBD to DNA, we performed a bio-layer interferometry (BLI) assay where we immobilized biotinylated E-box sequence on streptavidin sensors, and we evaluated recombinant N-Myc-Max binding to the DNA in the presence of increasing concentrations of VPC-70619. […] We observed a similar number of interactions when comparing the ratio of signal per nuclei in the presence or absence of the compound.
The bHLHLZ domain of N-Myc (amino acids 309–394) and Max (amino acids 12–93) protein sequences were cloned into pETDuet with an N-terminal 6×His. pETDuet-His-NMyc-Max was transformed and expressed in E. coli BL21 and induced with 0.5 mM isopropyl-β-D-thiogalactopyranoside (IPTG) at 16 °C overnight. The cultures were lysed by sonication and combined for purification by immobilized metal ion chromatography (IMAC) with nickel-nitrilotriacetic acid (Ni-NTA) resin. The bound proteins were eluted from the column with 20 mM Tris, pH = 8, 500 mM NaCl, 5% glycerol, 300 mM imidazole, 5 mM βMe, and 0.1 mM PMSF. Size exclusion chromatography with Superdex 75 was used to increase the purity of the N-Myc-Max protein sample. The purified protein complex was used in subsequent BLI and MST experiments.
Biotinylated-duplex DNA (Forward: 5′ Biotin-[…], Reverse: […]) was bound to the super-streptavidin (SSA) ForteBio Sensor in the assay buffer [20 mM Tris pH = 8, 150 mM NaCl, 5% glycerol, and 0.2 mM TCEP]. The protein solution was mixed with the serially diluted compound (70619) to a final concentration of 0.1 mg/mL of protein and 200 μM, 100 μM, and 50 μM for the compound. Sample containing N-Myc-Max protein alone was used as a control.

[7] = system: IMR32 cells; assay: Cell viability (CellTiter-Glo), IMR32; type: cell-based; conditions: Homo sapiens, IMR-32
Method: as §1, §2

Structure (SMILES): O=C(NCc1cnn(Cc2ccccc2)c1)[C@@H]1COc2ccccc2O1 [compound 70215]
- IC50 [1]: 20 µM
- inhibition at 25 µM [2]: 92%

Structure (SMILES): CC[C@@H]1Oc2cc(S(=O)(=O)N(C)CC(=O)N(C)Cc3ccccc3)c(C)cc2NC1=O [compound 70381]
- IC50 [1]: 20 µM
- inhibition at 25 µM [2]: 74%

Structure (SMILES): O=C(CCc1c[nH]c2ccccc12)Nc1nc2ccccc2[nH]1 [compound 70223]
- IC50 [1]: 10 µM
- inhibition at 25 µM [2]: 103%

Structure (SMILES): O=C(Nc1cccc(C(F)(F)F)c1)Nc1cccc(C(F)(F)F)c1 [compound 70511]
- IC50 [1]: 2 µM
- transcription inhibition activity (in words) [1]: promising inhibitory activity
- inhibition at 25 µM [2]: 102%
- cytotoxicity in Myc-negative HO15.19 (in words) ([3]; counter-screen): highly cytotoxic profile

Structure (SMILES): Cc1cccc(-c2cc(C(=O)Nc3ccc(S(=O)(=O)N4CCCCC4)cc3)n[nH]2)c1O [compound 70390]
- IC50 [1]: 9 µM
- inhibition at 25 µM [2]: 97%

Structure (SMILES): N#Cc1ccc(NNC(=O)c2ccc(C(F)(F)F)cc2)c(C(F)(F)F)c1 [compound 70551]
- half-life ([4]; male, Balb/c, mouse, plasma, ip, read-out: plasma half-life (T1/2) IP): 5.53 h
- Tmax ([4]; male, Balb/c, mouse, plasma, IP, read-out: Tmax IP (converted)): 1 h
- Cmax ([4]; male, Balb/c, mouse, plasma, IP, read-out: Cmax IP): 6220 ng/mL
- Tmax ([4]; male, Balb/c, mouse, plasma, PO, read-out: Tmax PO (converted)): 8 h
- Cmax ([4]; male, Balb/c, mouse, plasma, PO, read-out: Cmax PO): 2600 ng/mL
- adverse effects / signs of toxicity in PK animals ([4]; single dose IP or PO): No obvious adverse effects
- IC50 [1]: 4 µM
- microsomal half-life (T1/2) ([5]; listed as VPC-70551): 2.33 h
- half-life at 1 μM ([5]; mouse, pH 7.4, mouse liver microsomes, read-out: microsomal half-life (T1/2)): 2.35 h
- inhibition at 25 µM [2]: 98%

Structure (SMILES): Fc1ccccc1CNC(=S)Nc1cccc(C(F)(F)F)c1 [compound 70465]
- IC50 [1]: 10 µM
- inhibition at 25 µM [2]: 92%

Structure (SMILES): C[C@H](CCc1ccccc1)NC(=O)[C@H]1CCCN(C(=O)CCc2c[nH]c3ccccc23)C1 [compound 70314]
- IC50 [1]: 15 µM
- inhibition at 25 µM [2]: 93%

Structure (SMILES): O=C(NNc1ccc(C(F)(F)F)cc1[N+](=O)[O-])c1cnccn1 [compound 70127]
- IC50 [1]: 1 µM
- transcription inhibition activity (in words) [1]: strong Myc inhibitory activity
- disruption of DNA binding to (N-)Myc-Max (in words) [6]: weakly disrupts DNA binding
- inhibition at 25 µM [2]: 106%

Structure (SMILES): N#Cc1ccc(NNC(=O)c2cc(F)cc(Br)c2)c(C(F)(F)F)c1 [compound 70739]
- transcription inhibition activity (in words) [1]: better inhibition activity
- inhibition at 10 µM [7]: 87.2%
- inhibition at 10 µM [3]: 75.8%

Structure (SMILES): N#Cc1ccc(NNC(=O)c2ccc(C(F)(F)F)cc2O)c(C(F)(F)F)c1 [compound 70797]
- transcription inhibition activity (in words) [1]: activity was maintained
- inhibition at 10 µM [7]: 24.7%
- inhibition at 10 µM [3]: 34.2%

Structure (SMILES): FC(F)(F)c1cc(Br)cc(NC(=S)NCc2cccs2)c1 [compound 70495]
- IC50 [1]: 5 µM
- inhibition at 25 µM [2]: 100%

Structure (SMILES): N#Cc1ccc(NNC(=O)c2ccc(F)c(Cl)c2)c(C(F)(F)F)c1 [compound 70680]
- transcription inhibition activity (in words) [1]: strong increase in inhibition activity
- inhibition at 10 µM [7]: 52.9%
- inhibition at 10 µM [3]: 64%

Structure (SMILES): N#Cc1ccc(NNC(=O)c2cc(F)cc(C(F)(F)F)c2)c(C(F)(F)F)c1 [compound 70794]
- transcription inhibition activity (in words) [1]: better inhibition activity
- inhibition at 10 µM [7]: 89.2%
- inhibition at 10 µM [3]: 80.7%

Structure (SMILES): N#Cc1ccc(NNC(=O)c2cc(F)c(Cl)c(F)c2)c(C(F)(F)F)c1 [compound 70767]
- transcription inhibition activity (in words) [1]: strong increase in inhibition activity
- inhibition at 10 µM [7]: 31.6%
- inhibition at 10 µM [3]: 40.3%

Structure (SMILES): N#Cc1ccc(NNC(=O)c2ccc(F)c(F)c2F)c(C(F)(F)F)c1 [compound 70715]
- transcription inhibition activity (in words) [1]: strong increase in inhibition activity
- inhibition at 10 µM [7]: 14.4%
- inhibition at 10 µM [3]: 39.9%

Structure (SMILES): N#Cc1ccc(NNC(=O)c2ccc(Cl)cc2C(F)(F)F)c(C(F)(F)F)c1 [compound 70706]
- transcription inhibition activity (in words) [1]: activity was maintained
- inhibition at 10 µM [7]: 54.3%
- inhibition at 10 µM [3]: 65.6%

Structure (SMILES): O=C(CCN1C(=O)/C(=C\c2ccccc2)SC1=S)NCCc1c[nH]c2ccccc12 [compound 70388]
- IC50 [1]: 20 µM
- inhibition at 25 µM [2]: 77%

Structure (SMILES): Cc1cc(Cl)cc(C(=O)NNc2ccc(C#N)cc2C(F)(F)F)c1 [compound 70675]
- transcription inhibition activity (in words) [1]: better inhibition activity
- inhibition at 10 µM [7]: 65.4%
- inhibition at 10 µM [3]: 65.9%

Structure (SMILES): N#Cc1ccc(NNC(=O)c2cc(F)cc(Cl)c2)c(C(F)(F)F)c1 [compound 70644]
- transcription inhibition activity (in words) [1]: better inhibition activity
- inhibition at 10 µM [7]: 88.3%
- inhibition at 10 µM [3]: 69.5%
